The record followed here is patent US9817000B2, “Method for identifying compounds that modulate a T2R taste receptor” (The Regents of the University of California, priority 1999, dated 2017).

The structures appear in SMILES notation.

One assay concerns other hT2Rs. Briefly: FURA-2 [Ca2+]i imaging in control untransfected cells or cells transfected with other hT2Rs. Format: cell-based, human. As to the method:
To determine whether other T2Rs are also activated by bitter compounds, 11 rhodopsin-tagged human T2R receptors were assayed by individually transfecting them into HEK-293 cells expressing Gα15. Each transfected line was tested against a battery of bitter and sweet tastants, including amino acids, peptides, and other natural and synthetic compounds.

The target in another assay is T1, hT2R4 (Homo sapiens, UniProt Q9NYW5).
T1 construct: Full-length hT2Rs were isolated by PCR amplification of genomic DNA; expressed in transfected cells; host or cells: HEK-293 cells (PEAKrapid) expressing Gα15
T1 sequence (Q9NYW5 1-299): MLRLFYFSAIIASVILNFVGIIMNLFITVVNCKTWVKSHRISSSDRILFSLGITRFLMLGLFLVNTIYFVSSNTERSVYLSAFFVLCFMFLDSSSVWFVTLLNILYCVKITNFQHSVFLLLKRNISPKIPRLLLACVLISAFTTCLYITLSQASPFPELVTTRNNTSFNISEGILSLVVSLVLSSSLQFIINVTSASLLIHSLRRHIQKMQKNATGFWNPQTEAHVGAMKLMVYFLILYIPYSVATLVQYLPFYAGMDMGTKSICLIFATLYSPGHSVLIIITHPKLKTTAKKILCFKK
Briefly: FURA-2 [Ca2+]i imaging in HEK-293 cells expressing Gα15 and rho-hT2R4. The class given is cell-based. Conditions: for [Ca2+]i response (FURA-2): 1.5 mM denatonium. The text has this:
In this system, receptor activation leads to increases in intracellular calcium [Ca2+]i, which can be monitored at the single cell level using the FURA-2 calcium-indicator dye (Tsien et al., Cell Calcium 6:145-157 (1985)). To test and optimize Gα15 coupling, two different GPCRs, a Gαi-coupled μ-opioid receptor (Reisine, Neuropharm. 34:463-472 (1995)) and a Gαq-coupled mGluR1 receptor (Masu et al., Nature 349:760-765 (1991)), were used. Transfection of these receptors into HEK-293 cell produced robust, agonist-selective, and Gα15-dependent Ca^2+ responses (FIG. 1).
A number of studies have shown that many GPCRs, in particular sensory receptors, require specific “chaperones” for maturation and targeting through the secretory pathway (Baker et al., Embo J 13:4886-4895 (1994); Dwyer et al., Cell 93:455-466 (1998)). Recently, Krautwurst et al. (Cell 95:917-926 (1998)) generated chimeric receptors consisting of the first 20 amino acids of rhodopsin and various rodent olfactory receptors. These were targeted to the plasma membrane and functioned as odorant receptors in HEK-293 cells. To determine whether rhodopsin sequences can also help target T2Rs to the plasma membra, rhodopsin-T2R chimeras (rho-T2Rs) were constructed. […] Similar results were obtained with 11 human and 16 rodent T2Rs (see below). To further enhance the level of T2R expression, rho-T2Rs were placed under the control of a strong EF-1α promoter, and introduced as episomal plasmids into modified HEK-293 cells expressing Gα15 (pEAKrapid cells).
A bridge overlap PCR extension technique was used to generate rho-T2R chimeras, which contain the first 39 amino acids of bovine rhodopsin in frame with human and rodent T2R coding sequences (Mehta and Singh, Biotechniques 26:1082-1086 (1999). All receptors were cloned into a pEAK10 mammalian expression vector (Edge Biosystems, MD). Modified HEK-293 cells (PEAK^rapid cells; Edge BioSystems, MD) were grown and maintained at 37° C. in UltraCulture medium (Bio Whittaker) supplemented with 5% fetal bovine serum, 100 μg/ml Gentamycin sulphate (Fisher), 1 μg/ml Amphotericin B and 2 mM GlutaMax I (Lifetechnologies). For transfection, cells were seeded onto matrigel coated 24-well culture plates or 35 mm recording chambers. After 24 h at 37° C., cells were washed in OptiMEM medium (Lifetechnologies) and transfected using LipofectAMINE reagent (Lifetechnologies). Transfection efficiencies were estimated by co-transfection of a GFP reporter plasmid, and were typically >70%. Immunofluoresence staining, and activity assays were performed 36-48 h after transfection.
Transfected cells were washed once in Hank's balanced salt solution with 1 mM sodium pyruvate and 10 mM HEPES, pH 7.4 (assay buffer), and loaded with 2 μM FURA-2 AM (Molecular Probes) for 1 h at room temperature. The loading solution was removed and cells were incubated in 200 μl of assay buffer for 1 h to allow the cleavage of the AM ester. For most experiments, 24-well tissue culture plates containing cells expressing a single rho-T2R were stimulated with 200 μl of a 2× tastant solution (see next section). [Ca^2+]i changes were monitored using a Nikon Diaphot 200 microscope equipped with a 10×/0.5 fluor objective with the TILL imaging system (T.I.L.L Photonics GmbH). Acquisition and analysis of the fluorescence images used TILL-Vision software. Generally, [Ca^2+]i was measured for 80-120 s by sequentially illuminating cells for 200 ms at 340 nm and 380 nm and monitoring the fluorescence emission at 510 nm using a cooled CCD camera. The F340/F380 ratio was analyzed to measure [Ca^2+]i.
Kinetics of activation and deactivation were measured using a bath perfusion system. Cells were seeded onto a 150 μl microperfusion chamber, and test solutions were pressure-ejected with a picospritzer apparatus (General Valve, Inc.). Flow-rate was adjusted to ensure complete exchange of the bath solution within 4-5 s. […]

As for `CC[N+](CC)(CC(=O)Nc1c(C)cccc1C)Cc1ccccc1` [denatonium], the “[Ca2+]i response” value with other hT2Rs is “not”; on hT2R4, “significant transient increase in [Ca2+]i”. The “[Ca2+]i response (FURA-2)” value is “No increase in [Ca2+]i” on hT2R4 (absence of Gα15) and “robust Gα15 dependent responses” on hT2R4 (with Gα15). Also, the “increase in [Ca2+]i on tastant stimulation” value on hT2R4 (concentrations as in FIG. 4 (denatonium 5 mM)) is “increase in [Ca2+]i could be induced”. The “threshold of dose-dependent response” value on hT2R4 (in µM) is reported as around 100.
